From patent US10543272B2, “Use of aminolevulinic acid and derivatives thereof” (Photocure ASA, priority 2007, dated 2020)
Where a name gives a salt, the structure may show the parent alone.

Experiments:
Format in all cases: in vivo, human
[1] = test system: patients with facial acne vulgaris; assay: Adverse events subsequent to light exposure (Phase II study)
Experimental: A clinical Phase II study involving 23 males and 20 females (age 18 years or more) with facial acne vulgaris (papulo-pustular acne and at least 15 inflammatory acne lesions on at least one side of the face) has been performed. Patients were randomized to receive either MAL cream on the face at a concentration of 160 mg/g (16% wt), 80 mg/g (8% wt) or 40 mg/g (4% wt). The cream was administered under occlusion. […] A light dose of 37 J/cm^2 using Photocure's Aktilite 128 LED light source was provided at a working distance between 5 and 8 cm. The average time to deliver said light dose was about 8 minutes. Safety was evaluated by medical questionnaire and adverse events, i.e., side effects, reporting. Additional data relating to the adverse events, i.e., side effects, observed subsequent to light exposure during the study are shown in the table below. For patients who received the standard PDT treatment, i.e., patients in the 3 h after MAL (160 mg/g) group, not only a larger number of adverse events were observed than for the patients in any of the other groups, but the adverse events were also more severe in nature, i.e., higher numbers of moderate and severe adverse events (AEs) were observed.

[2] = test system: patients with facial acne vulgaris; assay: Post-PDT erythema from patient journal (Phase II study)
Experimental: A clinical Phase II study involving 23 males and 20 females (age 18 years or more) with facial acne vulgaris (papulo-pustular acne and at least 15 inflammatory acne lesions on at least one side of the face) has been performed. Patients were randomized to receive either MAL cream on the face at a concentration of 160 mg/g (16% wt), 80 mg/g (8% wt) or 40 mg/g (4% wt). The cream was administered under occlusion. […] A light dose of 37 J/cm^2 using Photocure's Aktilite 128 LED light source was provided at a working distance between 5 and 8 cm. The average time to deliver said light dose was about 8 minutes. This information was derived from the journal kept by patients. […] There is a significant difference among the 6 groups in the duration of post PDT erythema (p=0.03). […] In fact, all patients in the standard PDT treatment group experienced post-PDT erythema.

[3] = test system: patients with facial acne vulgaris; assay: Pain during light exposure and post-PDT pain, visual analog scale (Phase II study); conditions: for Pain during light exposure, Mean: visual analog scale 0-100
Experimental: A clinical Phase II study involving 23 males and 20 females (age 18 years or more) with facial acne vulgaris (papulo-pustular acne and at least 15 inflammatory acne lesions on at least one side of the face) has been performed. Patients were randomized to receive either MAL cream on the face at a concentration of 160 mg/g (16% wt), 80 mg/g (8% wt) or 40 mg/g (4% wt). The cream was administered under occlusion. […] A light dose of 37 J/cm^2 using Photocure's Aktilite 128 LED light source was provided at a working distance between 5 and 8 cm. The average time to deliver said light dose was about 8 minutes. Safety was evaluated by medical questionnaire and adverse events, i.e., side effects, reporting. Mean pain during light exposure was evaluated by patients on a visual analog scale where 0=no pain and 100=worst possible pain.

[4] = 3 h, 160 mg/g (standard PDT), 7 patients
[5] = 160 mg/g 3 h and 80 mg/g 1.5 h groups together

- Mean duration of erythema (shortest) ([2]; 40 mg/g for 1 hour): 0.5 days
- Mean duration of erythema (longest) ([2]; 160 mg/g for 3 hours): 14 days
- Duration of post PDT erythema, Mean ([2]; MAL cream 40 mg/g, 1 h): 4 days
- n: number of patients experiencing post-PDT erythema ([2]; MAL cream 40 mg/g, 1 h, 8 patients in group): 4
- Duration of post PDT erythema, Mean ([2]; MAL cream 40 mg/g, 1.5 h): 1.8 days
- n: number of patients experiencing post-PDT erythema ([2]; MAL cream 40 mg/g, 1.5 h, 8 patients in group): 6
- n: number of patients experiencing post-PDT erythema ([2]; MAL cream 80 mg/g, 0.5 h, 6 patients in group): 0
- Duration of post PDT erythema, Mean ([2]; MAL cream 80 mg/g, 1 h): 2.1 days
- n: number of patients experiencing post-PDT erythema ([2]; MAL cream 80 mg/g, 1 h, 8 patients in group): 5
- Duration of post PDT erythema, Mean ([2]; MAL cream 80 mg/g, 1.5 h): 3.7 days
- n: number of patients experiencing post-PDT erythema ([2]; MAL cream 80 mg/g, 1.5 h, 6 patients in group): 3
- Duration of post PDT erythema, Mean ([2]; MAL cream 160 mg/g, 3 h (standard PDT)): 11.9 days
- n: number of patients experiencing post-PDT erythema ([2]; MAL cream 160 mg/g, 3 h (standard PDT), 7 patients in group): 7
- Patients experiencing post-PDT erythema ([2]; standard PDT treatment group (160 mg/g, 3 h)): all patients
- Patients in whom light delivery had to be ended because of pain [3, 5]: 2 patients
- Patients in whom light delivery had to be interrupted because of pain [3, 5]: 2 patients
- Patients experiencing post-PDT pain ([3]; 0.5 h after MAL (80 mg/g)): 1 out of 6
- Pain during light exposure, Mean ([3]; MAL cream 40 mg/g, 1 h before red light 37 J/cm^2): 2
- Pain during light exposure, Mean ([3]; MAL cream 40 mg/g, 1.5 h before red light 37 J/cm^2): 19
- Pain during light exposure, Mean ([3]; MAL cream 80 mg/g, 0.5 h before red light 37 J/cm^2): 1
- Pain during light exposure, Mean ([3]; MAL cream 80 mg/g, 1 h before red light 37 J/cm^2): 9
- Pain during light exposure, Mean ([3]; MAL cream 80 mg/g, 1.5 h before red light 37 J/cm^2): 32
- Pain during light exposure, Mean ([3]; MAL cream 160 mg/g, 3 h before red light 37 J/cm^2 (standard PDT)): 64
- Patients experiencing post-PDT pain ([3]; all other groups (40 mg/g 1 h and 1.5 h; 80 mg/g 1 h and 1.5 h)): zero
- Patients experiencing post-PDT pain ([3]; standard PDT group (160 mg/g, 3 h)): 5 out of 7
Structure (SMILES): COC(=O)CCC(=O)CN [MAL, methylaminolevulinate hydrochloride]
- Mild AEs Per Pat ([1]; 0.5 h, 80 mg/g): 0.6
- Moderate AEs Per Pat ([1]; 0.5 h, 80 mg/g): 0
- Severe AEs Per Pat ([1]; 0.5 h, 80 mg/g): 0
- Total AEs Per Pat ([1]; 0.5 h, 80 mg/g): 0.667
- Mild AEs ([1]; 0.5 h, 80 mg/g, 6 patients): 4
- Moderate AEs ([1]; 0.5 h, 80 mg/g, 6 patients): 0
- Severe AEs ([1]; 0.5 h, 80 mg/g, 6 patients): 0
- Total AEs ([1]; 0.5 h, 80 mg/g, 6 patients): 4
- Mild AEs Per Pat ([1]; 1 h, 40 mg/g): 1.125
- Moderate AEs Per Pat ([1]; 1 h, 40 mg/g): 0
- Severe AEs Per Pat ([1]; 1 h, 40 mg/g): 0
- Total AEs Per Pat ([1]; 1 h, 40 mg/g): 1.125
- Mild AEs ([1]; 1 h, 40 mg/g, 8 patients): 9
- Moderate AEs ([1]; 1 h, 40 mg/g, 8 patients): 0
- Severe AEs ([1]; 1 h, 40 mg/g, 8 patients): 0
- Total AEs ([1]; 1 h, 40 mg/g, 8 patients): 9
- Mild AEs Per Pat ([1]; 1 h, 80 mg/g): 1.375
- Moderate AEs Per Pat ([1]; 1 h, 80 mg/g): 0
- Severe AEs Per Pat ([1]; 1 h, 80 mg/g): 0
- Total AEs Per Pat ([1]; 1 h, 80 mg/g): 1.375
- Mild AEs ([1]; 1 h, 80 mg/g, 8 patients): 11
- Moderate AEs ([1]; 1 h, 80 mg/g, 8 patients): 0
- Severe AEs ([1]; 1 h, 80 mg/g, 8 patients): 0
- Total AEs ([1]; 1 h, 80 mg/g, 8 patients): 11
- Mild AEs Per Pat ([1]; 1.5 h, 40 mg/g): 2
- Moderate AEs Per Pat ([1]; 1.5 h, 40 mg/g): 0.125
- Severe AEs Per Pat ([1]; 1.5 h, 40 mg/g): 0
- Total AEs Per Pat ([1]; 1.5 h, 40 mg/g): 2.125
- Mild AEs ([1]; 1.5 h, 40 mg/g, 8 patients): 16
- Moderate AEs ([1]; 1.5 h, 40 mg/g, 8 patients): 1
- Severe AEs ([1]; 1.5 h, 40 mg/g, 8 patients): 0
- Total AEs ([1]; 1.5 h, 40 mg/g, 8 patients): 17
- Mild AEs Per Pat ([1]; 1.5 h, 80 mg/g): 1.5
- Moderate AEs Per Pat ([1]; 1.5 h, 80 mg/g): 0.167
- Severe AEs Per Pat ([1]; 1.5 h, 80 mg/g): 0.167
- Total AEs Per Pat ([1]; 1.5 h, 80 mg/g): 1.833
- Mild AEs ([1]; 1.5 h, 80 mg/g, 6 patients): 9
- Moderate AEs ([1]; 1.5 h, 80 mg/g, 6 patients): 1
- Severe AEs ([1]; 1.5 h, 80 mg/g, 6 patients): 1
- Total AEs ([1]; 1.5 h, 80 mg/g, 6 patients): 11
- Mild AEs Per Pat ([1]; 3 h, 160 mg/g (standard PDT)): 2.14
- Moderate AEs Per Pat ([1]; 3 h, 160 mg/g (standard PDT)): 1
- Severe AEs Per Pat ([1]; 3 h, 160 mg/g (standard PDT)): 0.429
- Total AEs Per Pat ([1]; 3 h, 160 mg/g (standard PDT)): 3.571
- Mild AEs [1, 4]: 15
- Moderate AEs [1, 4]: 7
- Severe AEs [1, 4]: 3
- Total AEs [1, 4]: 25
- Cracked skin with bleeding ([1]; standard PDT treatment, 3 h after MAL (160 mg/g), did not occur with any other treatment modality): one patient
